Like-named read-outs stand apart in the source and are kept apart here.
What was measured:
CYP2B6 [1] = target: T1, CYP2B6 (Homo sapiens, UniProt P20813); test: Direct CYP inhibition assay in pooled HLMs, CYP2B6 (bupropion)
T1 sequence (P20813 1-491): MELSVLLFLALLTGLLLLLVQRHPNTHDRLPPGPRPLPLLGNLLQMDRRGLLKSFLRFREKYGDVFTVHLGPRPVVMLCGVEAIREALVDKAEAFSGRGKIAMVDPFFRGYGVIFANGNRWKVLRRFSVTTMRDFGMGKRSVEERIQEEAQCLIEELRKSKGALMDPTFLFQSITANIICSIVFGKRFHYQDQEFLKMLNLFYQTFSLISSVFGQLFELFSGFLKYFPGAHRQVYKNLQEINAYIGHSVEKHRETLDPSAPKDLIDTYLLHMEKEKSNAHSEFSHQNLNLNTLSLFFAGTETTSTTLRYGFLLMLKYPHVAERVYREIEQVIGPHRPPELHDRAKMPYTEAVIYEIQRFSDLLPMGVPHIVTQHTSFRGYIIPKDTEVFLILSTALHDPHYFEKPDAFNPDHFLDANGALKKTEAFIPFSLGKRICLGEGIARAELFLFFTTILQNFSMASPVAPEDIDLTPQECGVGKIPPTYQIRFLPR

CYP3A4 [2] = target: T2, CYP3A4 (Homo sapiens, UniProt P08684)
T2 sequence (P08684 whole entry): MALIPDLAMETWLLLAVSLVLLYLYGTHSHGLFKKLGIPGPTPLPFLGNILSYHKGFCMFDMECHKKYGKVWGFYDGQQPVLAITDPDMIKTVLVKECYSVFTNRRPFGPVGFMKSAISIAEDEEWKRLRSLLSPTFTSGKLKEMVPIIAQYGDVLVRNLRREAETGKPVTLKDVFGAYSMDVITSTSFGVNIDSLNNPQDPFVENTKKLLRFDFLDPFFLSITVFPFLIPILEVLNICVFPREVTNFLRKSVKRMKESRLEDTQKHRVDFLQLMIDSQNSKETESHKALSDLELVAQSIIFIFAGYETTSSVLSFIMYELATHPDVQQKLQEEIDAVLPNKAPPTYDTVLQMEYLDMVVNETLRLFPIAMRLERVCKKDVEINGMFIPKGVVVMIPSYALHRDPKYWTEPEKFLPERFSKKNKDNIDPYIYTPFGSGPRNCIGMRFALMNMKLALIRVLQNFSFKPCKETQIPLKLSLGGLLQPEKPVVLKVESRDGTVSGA

CYP2C19 = CYP2C19 (Homo sapiens, UniProt P33261); test: Direct CYP inhibition assay in pooled HLMs, CYP2C19 (S-mephenytoin)
CYP2C19, sequence (P33261 whole entry): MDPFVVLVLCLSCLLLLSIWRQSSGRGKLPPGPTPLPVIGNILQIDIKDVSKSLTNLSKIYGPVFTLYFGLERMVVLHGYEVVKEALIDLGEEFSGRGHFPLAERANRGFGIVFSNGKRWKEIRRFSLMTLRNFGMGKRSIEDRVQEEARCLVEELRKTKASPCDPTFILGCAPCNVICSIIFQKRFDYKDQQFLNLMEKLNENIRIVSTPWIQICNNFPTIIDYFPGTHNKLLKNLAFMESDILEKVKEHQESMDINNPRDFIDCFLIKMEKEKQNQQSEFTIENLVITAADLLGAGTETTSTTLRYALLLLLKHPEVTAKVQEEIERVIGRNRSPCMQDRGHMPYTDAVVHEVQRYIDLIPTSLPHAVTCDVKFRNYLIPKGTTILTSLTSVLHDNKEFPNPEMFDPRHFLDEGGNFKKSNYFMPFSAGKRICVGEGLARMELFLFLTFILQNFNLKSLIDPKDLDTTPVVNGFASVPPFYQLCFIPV

CYP2C9 [3] = target: T3, CYP2C9 (Homo sapiens, UniProt P11712); settings: microsomes, 10 min, 50 μM, pH 7.4
T3 sequence (P11712 whole entry): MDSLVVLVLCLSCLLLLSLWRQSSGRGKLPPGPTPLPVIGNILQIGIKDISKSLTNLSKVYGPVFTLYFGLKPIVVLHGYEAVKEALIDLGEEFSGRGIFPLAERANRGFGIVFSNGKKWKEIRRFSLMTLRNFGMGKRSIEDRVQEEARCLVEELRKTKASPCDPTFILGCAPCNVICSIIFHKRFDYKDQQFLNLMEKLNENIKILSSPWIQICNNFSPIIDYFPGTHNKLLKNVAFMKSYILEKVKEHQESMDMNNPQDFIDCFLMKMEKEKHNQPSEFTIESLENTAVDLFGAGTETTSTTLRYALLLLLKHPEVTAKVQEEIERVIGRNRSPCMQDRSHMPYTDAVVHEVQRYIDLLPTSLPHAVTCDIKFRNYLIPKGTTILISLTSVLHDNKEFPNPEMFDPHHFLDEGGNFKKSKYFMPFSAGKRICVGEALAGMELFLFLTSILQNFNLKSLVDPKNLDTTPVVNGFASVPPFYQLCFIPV

CYP2C9 [4] = target: T3, CYP2C9; test: Direct CYP inhibition assay in pooled HLMs, CYP2C9 (tolbutamide)
CYP3A4 [5] = target: T2, CYP3A4; remark: listed apart in the source
Description: To assess the effect of POH on the kinetics of the formation of 1′-hydroxymidazolam (1′-OH-MDZ) and 4-hydroxymidazolam (4-OH-MDZ), 5 μM MDZ was incubated with POH (0–100 μM) in hHOs for 24 h at 37 °C in a CO2 incubator. Samples were incubated in 24-well culture plates, with each well containing a total volume of 0.7 mL. At 2, 4, 6, and 24 h, 70 μL of medium was sampled, and reaction termination was achieved by adding an equal volume of ice-cold acetonitrile containing 100 nM carbamazepine as an internal standard. The supernatants were analyzed using LC-MS/MS after centrifugation at 10,000× g for 10 min at 4 °C. […] Data were normalized for protein concentrations measured using the Pierce™ BCA Protein Assay Kit (Thermo Fisher Scientific, Waltham, MA, USA) following the manufacturer’s instructions. The experiment was performed using four separate samples.

CYP2B6 [6] = target: T1, CYP2B6; test: biochemical
Description: (§2) A 5 min pre-incubation was performed prior to initiating reactions with the addition of 1 mM NADPH. After incubation at 37 °C for 10 min, 200 μL of ice-cold acetonitrile containing 100 nM carbamazepine as an internal standard was added to terminate the reaction. The samples were agitated and centrifuged at 4 °C for 20 min at 3000× g. The supernatants were transferred to a 96-well plate for LC-MS/MS analysis. The experiment was performed using three separate samples.
(§3) Data acquired from the evaluation of enzyme inhibition using various concentrations of substrates and test compounds were fit to different models (competitive, noncompetitive, uncompetitive, or mixed), and inhibition constant (Ki) and goodness of fit values were obtained using GraphPad Prism. The appropriate type of inhibition was selected based on statistical goodness of fit tests including Akaike’s information criterion (AICc) with correction for small sample size and the standard deviation of the residuals (Sy.x).

CYP2C9 [7] = target: T3, CYP2C9; test: Effect of POH on fimasartan (FMS) metabolism in pooled HLMs: CYP2C9-mediated hydroxy butyl FMS formation; format: in vitro ADME; settings: FMS 30 μM, 95% CI in parentheses; for IC50: pooled HLMs, 10 min
Description: (§1) The substrates were applied at a concentration that approximated their Km values. The reactions were preincubated for 5 min before being initiated with the addition of 1 mM NADPH. After 10 min incubation, reactions containing atorvastatin, buspirone, FMS, or nifedipine were terminated by the addition of 200 μL of ice-cold acetonitrile with 100 nM carbamazepine as an internal standard. For terminating reactions with donepezil or tadalafil, 200 μL of ice-cold methanol containing 0.5% (v/v) formic acid and 1 μM carbamazepine as internal standard was added to samples. […] The experiment was performed using three separate samples.

CYP3A4 and CYP2C9 = test: Effect of POH on fimasartan (FMS) metabolism in pooled HLMs: FMS S-oxide formation; format: in vitro ADME, human; settings: FMS 30 μM, (−)-POH 3.2–100 μM
Description: as §1

CYP1A2 = target: T4, CYP1A2 (Homo sapiens, UniProt P05177); test: Direct CYP inhibition assay in pooled HLMs, CYP1A2 (phenacetin); settings: up to 50 μM
T4 sequence (P05177 1-516): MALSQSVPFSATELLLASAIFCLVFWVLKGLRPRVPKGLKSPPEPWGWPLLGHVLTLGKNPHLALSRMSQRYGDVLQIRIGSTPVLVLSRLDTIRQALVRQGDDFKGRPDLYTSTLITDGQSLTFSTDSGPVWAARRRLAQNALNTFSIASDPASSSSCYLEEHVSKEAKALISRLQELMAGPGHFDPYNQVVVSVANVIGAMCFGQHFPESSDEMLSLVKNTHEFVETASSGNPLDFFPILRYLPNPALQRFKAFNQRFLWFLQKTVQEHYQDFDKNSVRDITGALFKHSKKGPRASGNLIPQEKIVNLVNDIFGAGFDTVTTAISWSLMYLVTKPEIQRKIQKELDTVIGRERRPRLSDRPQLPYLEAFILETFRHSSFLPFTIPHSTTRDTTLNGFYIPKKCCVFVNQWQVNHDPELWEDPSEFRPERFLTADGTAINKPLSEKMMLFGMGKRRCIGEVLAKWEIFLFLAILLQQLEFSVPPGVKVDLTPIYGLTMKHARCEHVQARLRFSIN

CYP3A4 [8] = target: T2, CYP3A4; test: Effect of POH on fimasartan (FMS) metabolism in pooled HLMs: CYP3A4-mediated BR-A-557 formation; format: in vitro ADME; settings: FMS 30 μM, 100 μM (−)-POH
Description: as §1

CYP2B6 [9] = target: T1, CYP2B6; test: Determination of CYP inhibition mode and Ki in pooled HLMs, CYP2B6-mediated bupropion hydroxylation
Description: as §2, §3

SMILES: C=C(C)[C@@H]1CC=C(CO)CC1 [(−)-POH, (−)-perillyl alcohol]
- IC50 (CYP2B6 [1]): 6.99 µM
- Formation of 1′-OH-MDZ relative to control without (−)-POH (CYP3A4 [2]; human, 10 min, 50 μM, pH 7.4): 1.83 fold
- Effect on CYP3A4 (midazolam) activity, MDZ 1′-hydroxylation (CYP3A4 [2]; pooled HLMs, substrate midazolam, test compound 0–50 μM): Stimulation *
- IC50 (CYP2C19): > 50 µM
- CYP2C9 activity, % of the control level (CYP2C9 [3]): 64.2%
- IC50 (CYP2C9 [4]): > 50 µM
- Rate of 1′-OH-MDZ formation in hHOs (CYP3A4 [5]; 2.5 μM): 1.86 (1.64–2.07) pmol/h/mg protein
- Rate of 1′-OH-MDZ formation in hHOs (CYP3A4 [5]; 10 μM): 2.04 (1.88–2.20) pmol/h/mg protein
- Rate of 1′-OH-MDZ formation in hHOs (CYP3A4 [5]; 25 μM): 2.34 (2.18–2.49) pmol/h/mg protein
- Rate of 1′-OH-MDZ formation in hHOs (CYP3A4 [5]; 50 μM): 3.21 (2.93–3.48) pmol/h/mg protein
- Formation rate of 4-OH-MDZ in hHOs (CYP3A4 [5]; 100 μM): 0.159 ± 0.016 pmol/h/mg protein
- Increase of the rate of 1′-OH-MDZ formation compared with absence of (−)-POH (CYP3A4 [5]; 100 μM): 2.05 fold
- Ki (CYP2B6 [6]): 3.78 µM
- IC50 (CYP2C9 [7]; IC50 against formation of 1-hydroxy butyl FMS): 123 µM
- IC50 (CYP2C9 [7]; IC50 against formation of 4-hydroxy butyl FMS): 63 µM
- IC50 at 10 min (CYP2C9 [7]; human, pooled human liver microsomes, pH 7.4, pooled HLMs, read-out: IC50 against formation of 2- or 3-hydroxy butyl FMS): 62 µM
- Formation of FMS S-oxide (CYP3A4 and CYP2C9): reduced
- Inhibition of CYP1A2 activity (CYP1A2): not significantly inhibited
- BR-A-557 formation from FMS relative to the control (CYP3A4 [8]): 1.29 fold
- Type of inhibition, CYP2B6 (CYP2B6 [9]; best fit by AICc and Sy.x, Dixon plots): mixed inhibition model
- Ki, CYP2B6, uncompetitive model (not selected) (CYP2B6 [9]; pooled HLMs, bupropion, 95% CI in parentheses): 4.54 (3.62–5.56) μM

Source: article PMC11676982, “Heterotropic Activation of Cytochrome P450 3A4 by Perillyl Alcohol” (Pharmaceutics, 2024)
